Measured values published in ChEMBL document CHEMBL1141777, “Norlanostane triterpenoidal saponins from the marine sponge melophlussarassinorum” (2005).
The source made the active and inactive calls. No cut-off for these calls is given here.

How the values were obtained:
Bacillus subtilis [1] = experiment: Antimicrobial activity against Bacillus subtilis DSM 2109; assay type: functional, organism-based
Saccharomyces cerevisiae [2] = experiment: Antimicrobial activity against Saccharomyces cerevisiae at 10 ug after 24 hrs by agar diffusion assay; assay type: functional; details: read-out: IZ
Escherichia coli = experiment: Antimicrobial activity against Escherichia coli DSM 10290; assay type: functional, organism-based
Saccharomyces cerevisiae [3] = experiment: Antimicrobial activity against Saccharomyces cerevisiae; assay type: functional, organism-based
Bacillus subtilis [4] = experiment: Antimicrobial activity against Bacillus subtilis DSM 2109 at 10 ug after 24 hrs by agar diffusion assay; assay type: functional; details: DSM 2109, 24 h, read-out: IZ

Structure (SMILES)	Activity (Bacillus subtilis [1])	zone of inhibition at 10 µg/disc (Saccharomyces cerevisiae [2])	Activity (Escherichia coli)	Activity (Saccharomyces cerevisiae [3])	zone of inhibition at 10 µg/disc (Bacillus subtilis [4])
CC(=O)N[C@H]1[C@H](O[C@@H]2CO[C@@H](O[C@H]3CC[C@]4(C)C5=C(CC[C@H]4C3(C)C)[C@@H]3CC[C@H]([C@H](C)CC(=O)C=C(C)C)[C@@]3(C)CC5)[C@H](O[C@@H]3O[C@H](CO[C@@H]4O[C@H](CO)[C@@H](O)[C@H](O)[C@H]4O[C@@H]4O[C@H](CO)[C@@H](O)[C@H](O)[C@H]4O)[C@@H](O)[C@H](O)[C@H]3NC(C)=O)[C@H]2O)O[C@H](CO)[C@H](O)[C@@H]1O [SARASINOSIDE A1]	inactive	10 mm	inactive	Active	
CC(=O)N[C@H]1[C@H](O[C@@H]2CO[C@@H](O[C@H]3CC[C@]4(C)C5=C(CC[C@H]4C3(C)C)[C@@H]3CC[C@H]([C@H](C)CC(=O)CC(C)(C)O)[C@@]3(C)CC5)[C@H](O[C@@H]3O[C@H](CO[C@@H]4O[C@H](CO)[C@@H](O)[C@H](O)[C@H]4O[C@@H]4O[C@H](CO)[C@@H](O)[C@H](O)[C@H]4O)[C@@H](O)[C@H](O)[C@H]3NC(C)=O)[C@H]2O)O[C@H](CO)[C@H](O)[C@@H]1O [SARASINOSIDE J]		13 mm		Active	9 mm
